# Like-named read-outs stand apart in the source and are kept apart here.
# What was measured:
# [1] = Determination of moisture contents with KF moisture meter at different time points; assay type: physicochemical; conditions: temperature 23° C., humidity 92.5%
# Source text: (§1) For R-3-hydroxybutyric acid, potassium R-3-hydroxybutyrate, mixture of R-3-hydroxybutyric acid and potassium R-3-hydroxybutyrate, and R-3-hydroxybutyric acid·potassium R-3-hydroxybutyrate complex of Example 1, under a certain condition, KF moisture meter was used to determine the moisture contents at different time points.
# as §1, with “3-hydroxybutyric” for “R-3-hydroxybutyric”, “3-hydroxybutyrate,” for “R-3-hydroxybutyrate,”, “3-hydroxybutyrate” for “R-3-hydroxybutyrate”, “7,” for “1,”
# as §1, with “S-3-hydroxybutyric” for “R-3-hydroxybutyric”, “S-3-hydroxybutyrate,” for “R-3-hydroxybutyrate,”, “S-3-hydroxybutyrate” for “R-3-hydroxybutyrate”, “13,” for “1,”
# as §1, with “calcium” for “potassium”, “acid·calcium” for “acid·potassium”, “19,” for “1,”
# (§2) For 3-hydroxybutyric acid, calcium 3-hydroxybutyrate, mixture of 3-hydroxybutyric acid and calcium 3-hydroxybutyrate, and 3-hydroxybutyric acid·calcium 3-hydroxybutyrate complex of Example 25, under a certain condition, KF moisture meter was used to determine the moisture contents at different time points.
# as §2, with “S-3-hydroxybutyric” for “3-hydroxybutyric”, “S-3-hydroxybutyrate,” for “3-hydroxybutyrate,”, “S-3-hydroxybutyrate” for “3-hydroxybutyrate”, “31,” for “25,”
# as §1, with “magnesium” for “potassium”, “acid·magnesium” for “acid·potassium”, “37,” for “1,”
# as §2, with “magnesium” for “calcium”, “acid·magnesium 3-hydroxy butyrate” for “acid·calcium 3-hydroxybutyrate”, “43,” for “25,”
# For S-3-hydroxybutyric acid, magnesium S-3-hydroxybutyrate, mixture of S-3-hydroxybutyric acid and magnesium S-3-hydroxybutyrate, and S-3-hydroxybutyric acid·magnesium S-3-hydroxybutyrate complex of Example 49, under a certain condition, KF moisture meter was used to determine the moisture contents at different time points.
# (§3) For R-3-hydroxypentanoic acid, sodium R-3-hydroxypentanoate, mixture of R-3-hydroxypentanoic acid and sodium R-3-hydroxypentanoate, and R-3-hydroxypentanoic acid·sodium R-3-hydroxypentanoate complex of Example 55, under a certain condition, KF moisture meter was used to determine the moisture contents at different time points.
# as §3, with “3-hydroxypentanoic” for “R-3-hydroxypentanoic”, “3-hydroxypentanoate,” for “R-3-hydroxypentanoate,”, “3-hydroxypentanoate” for “R-3-hydroxypentanoate”, “61,” for “55,”
# as §3, with “S-3-hydroxypentanoic” for “R-3-hydroxypentanoic”, “S-3-hydroxypentanoate,” for “R-3-hydroxypentanoate,”, “S-3-hydroxypentanoate” for “R-3-hydroxypentanoate”, “67,” for “55,”
# [2] = Stability of complexes at 30-80° C.; assay type: physicochemical
# Source text: For R-3-hydroxybutyric acid, potassium R-3-hydroxybutyrate, mixture of R-3-hydroxybutyric acid and potassium R-3-hydroxybutyrate, and R-3-hydroxybutyric acid·potassium R-3-hydroxybutyrate complex of Example 1, […]
# For 3-hydroxybutyric acid, potassium 3-hydroxybutyrate, mixture of 3-hydroxybutyric acid and potassium 3-hydroxybutyrate, and 3-hydroxybutyric acid·potassium 3-hydroxybutyrate complex of Example 7, […]
# For S-3-hydroxybutyric acid, potassium S-3-hydroxybutyrate, mixture of S-3-hydroxybutyric acid and potassium S-3-hydroxybutyrate, and S-3-hydroxybutyric acid·potassium S-3-hydroxybutyrate complex of Example 13, […]
# For R-3-hydroxybutyric acid, calcium R-3-hydroxybutyrate, mixture of R-3-hydroxybutyric acid and calcium R-3-hydroxybutyrate, and R-3-hydroxybutyric acid·calcium R-3-hydroxybutyrate complex of Example 19, […]
# For 3-hydroxybutyric acid, calcium 3-hydroxybutyrate, mixture of 3-hydroxybutyric acid and calcium 3-hydroxybutyrate, and 3-hydroxybutyric acid·calcium 3-hydroxybutyrate complex of Example 25, […]
# For S-3-hydroxybutyric acid, calcium S-3-hydroxybutyrate, mixture of S-3-hydroxybutyric acid and calcium S-3-hydroxybutyrate, and S-3-hydroxybutyric acid·calcium S-3-hydroxybutyrate complex of Example 31, […]
# For R-3-hydroxybutyric acid, magnesium R-3-hydroxybutyrate, mixture of R-3-hydroxybutyric acid and magnesium R-3-hydroxybutyrate, and R-3-hydroxybutyric acid·magnesium R-3-hydroxybutyrate complex of Example 37, […]
# For 3-hydroxybutyric acid, magnesium 3-hydroxybutyrate, mixture of 3-hydroxybutyric acid and magnesium 3-hydroxybutyrate, and 3-hydroxybutyric acid·magnesium 3-hydroxybutyrate complex of Example 43, […]
# For S-3-hydroxybutyric acid, magnesium S-3-hydroxybutyrate, mixture of S-3-hydroxybutyric acid and magnesium S-3-hydroxybutyrate, and S-3-hydroxybutyric acid·magnesium S-3-hydroxybutyrate complex of Example 49, […]
# For R-3-hydroxypentanoic acid, sodium R-3-hydroxypentanoate, mixture of R-3-hydroxypentanoic acid and sodium R-3-hydroxypentanoate, and R-3-hydroxypentanoic acid·sodium R-3-hydroxypentanoate complex of Example 55, […]
# For 3-hydroxypentanoic acid, sodium 3-hydroxypentanoate, mixture of 3-hydroxypentanoic acid and sodium 3-hydroxypentanoate, and 3-hydroxypentanoic acid·sodium 3-hydroxypentanoate complex of Example 61, […]
# For S-3-hydroxypentanoic acid, sodium S-3-hydroxypentanoate, mixture of S-3-hydroxypentanoic acid and sodium S-3-hydroxypentanoate, and S-3-hydroxypentanoic acid·sodium S-3-hydroxypentanoate complex of Example 67, […]
Compound,moisture content (%) ([1]; 30 min),moisture content (%) ([1]; 1 h),moisture content (%) ([1]; 2 h),moisture content (%) ([1]; 4 h),moisture content (%) ([1]; 6 h),moisture content (%) ([1]; 7 h),moisture content (%) ([1]; 11 h),moisture content (%) ([1]; 22 h),Stability ([2]; 30° C.),Stability ([2]; 40° C.),Stability ([2]; 50° C.),Stability ([2]; 60° C.),Stability ([2]; 80° C.),Stability [2],Stability ([2]; 70° C.)
C[C@@H](O)CC(=O)O.C[C@@H](O)CC(=O)[O-].C[C@@H](O)CC(=O)[O-].[Ca+2] [R-3-hydroxybutyric acid·calcium R-3-hydroxybutyrate],0.54,1.02,1.96,3.26,4.79,5.39,8.65,14.45,unchanged,unchanged,unchanged,unchanged,melted,–,–
C[C@@H](O)CC(=O)O.C[C@@H](O)CC(=O)[O-].C[C@@H](O)CC(=O)[O-].[Mg+2] [R-3-hydroxybutyric acid·magnesium R-3-hydroxybutyrate],0.57,0.92,1.76,3.16,4.59,5.69,8.65,14.45,unchanged,unchanged,unchanged,unchanged,melted,–,–
C[C@@H](O)CC(=O)O.C[C@@H](O)CC(=O)[O-].[K+] [R-3-hydroxybutyric acid·potassium R-3-hydroxybutyrate],0.64,1.24,1.89,3.66,5.89,6.78,9.77,19.45,unchanged,unchanged,unchanged,unchanged,melted,–,–
CC[C@@H](O)CC(=O)O.CC[C@@H](O)CC(=O)[O-].[Na+] [R-3-hydroxypentanoic acid·sodium R-3-hydroxypentanoate],0.45,0.85,1.63,2.72,4.08,4.49,7.21,14.54,–,–,–,–,–,unchanged,–
C[C@H](O)CC(=O)O [S-3-hydroxybutyric acid],1.23,2.28,4.05,6.32,9.53,10.62,17.08,32.95,unchanged,–,melted,melted,melted,–,melted
C[C@H](O)CC(=O)O.C[C@H](O)CC(=O)[O-].C[C@H](O)CC(=O)[O-].[Ca+2] [S-3-hydroxybutyric acid·calcium S-3-hydroxybutyrate],0.52,0.98,1.88,3.05,4.47,5.22,8.41,13.98,unchanged,unchanged,unchanged,unchanged,melted,–,–
C[C@H](O)CC(=O)O.C[C@H](O)CC(=O)[O-].C[C@H](O)CC(=O)[O-].[Mg+2] [S-3-hydroxybutyric acid·magnesium S-3-hydroxybutyrate],0.58,0.98,1.79,3.16,4.58,5.64,8.86,14.74,unchanged,unchanged,unchanged,unchanged,melted,–,–
C[C@H](O)CC(=O)O.C[C@H](O)CC(=O)[O-].[K+] [S-3-hydroxybutyric acid·potassium S-3-hydroxybutyrate],0.72,1.34,196,3.72,5.99,6.82,9.83,18.28,unchanged,unchanged,unchanged,unchanged,melted,–,–
CC[C@H](O)CC(=O)O.CC[C@H](O)CC(=O)[O-].[Na+] [S-3-hydroxypentanoic acid·sodium S-3-hydroxypentanoate],0.59,1.15,1.54,2.73,3.99,4.43,7.03,14.11,–,–,–,–,–,unchanged,–
"CCC(O)CC(=O)[O-].[Na+] (stereo not shown) [Sodium 3-hydroxypentanoate, sodium 3-hydroxypentanoate]",0.96,1.83,3.02,4.46,6.28,6.96,10.72,20.79,–,–,–,–,–,unchanged,–
"CC[C@@H](O)CC(=O)[O-].[Na+] [Sodium R-3-hydroxypentanoate, sodium R-3-hydroxypentanoate]",0.87,1.68,2.83,4.36,6.13,6.70,10.57,20.57,–,–,–,–,–,unchanged,–
